# Tests used:
# human recombinant AKR1B1 = target: T1, human recombinant AKR1B1 (Homo sapiens, UniProt P15121); experiment: AKR1B1 inhibition assay with L-idose as substrate, NADPH oxidation (IC50); format: biochemical; settings: 10 mU AKR1B1, 1.6 mM L-idose, 37 °C; IC50 ± SD
# T1 construct: made in house
# Procedure: (§1) The purification of human recombinant AKR1B1 was performed as previously described. […] The purified enzyme, stored at −80 °C in 10 mM sodium phosphate buffer pH 7.0 containing 2 mM DTT and 30% (w/v) glycerol, was extensively dialyzed against 10 mM sodium phosphate buffer pH 7.0 before use. […] The fractions containing PTP1B were collected, concentrated, and injected into a Superdex G75 column equilibrated with Tris-HCl buffer pH 8.0 containing 150 mM NaCl and 1 mM mercaptoethanol. The fractions containing PTP1B were collected and concentrated; the purity of preparation was evaluated using SDS-PAGE. The PTP1B preparation was split into fractions of 0.5 mL volume; each fraction was stored at −80 °C.
# (§2) The standard assay mixture (final volume 0.7 mL) was contained in 0.25 M sodium phosphate buffer pH 6.8, 0.18 mM NADPH, 0.4 M ammonium sulfate, 0.5 mM EDTA, and 4.7 mM GAL. One unit of enzyme activity is the amount of enzyme that catalyzes the conversion of 1 µmol of substrate/min in the above assay conditions. The same assay conditions were adopted in the inhibition studies using L-idose as the substrate at the indicated concentrations. PTP1B activity was determined using p-nitrophenylphosphate (pNPP) as the synthetic substrate. The pNPP was dissolved in 0.075 M ββ-dimethylglutarate buffer, pH 7.0, containing 1 mM dithiothreitol. Each assay was carried out at 37 °C in 1 mL of assay buffer. The reactions were started by diluting an aliquot of PTP1B preparation in the assay buffer; after 30 min, the reactions were stopped by adding 2 mL of 0.2 M KOH solution. The amount of p-nitrophenol released was determined spectrophotometrically, reading the absorbance of solutions at 400 nm (ε400nm = 18 mM^−^1cm^−^1).
# TC-PTP = target: T2, TC-PTP (Homo sapiens, UniProt P17706); experiment: TC-PTP inhibition (IC50), specificity of avarone; format: biochemical
# T2 sequence (P17706 1-415): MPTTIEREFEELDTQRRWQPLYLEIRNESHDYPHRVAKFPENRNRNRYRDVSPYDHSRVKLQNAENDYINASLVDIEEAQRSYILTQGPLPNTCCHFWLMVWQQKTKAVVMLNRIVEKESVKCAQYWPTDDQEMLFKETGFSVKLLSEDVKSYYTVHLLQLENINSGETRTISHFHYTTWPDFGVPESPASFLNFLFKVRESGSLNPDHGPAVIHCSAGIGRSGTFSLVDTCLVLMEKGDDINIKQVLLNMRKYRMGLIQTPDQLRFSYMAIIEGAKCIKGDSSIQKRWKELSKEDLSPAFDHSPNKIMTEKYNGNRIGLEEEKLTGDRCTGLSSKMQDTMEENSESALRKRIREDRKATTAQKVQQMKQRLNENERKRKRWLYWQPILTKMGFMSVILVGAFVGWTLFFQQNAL
# Procedure: To evaluate the capacity of avarone to specifically target the PTP1B enzyme, we determined the IC50 value for TC-PTP, another member of the tyrosine phosphatase family (Figure S14). […] To confirm this hypothesis, the interaction mode of avarone with TC-PTP was analyzed by in silico docking analysis carried out using the crystallographic structure (7F5N) deposited in the PDB database.
# Figure S13. Binding sites of avarone (2) identified by docking analyses. ( A), General view
# of interaction sites of avarone on PTP1B surface. (B), detail showing the molecules of
# avarone bound into the active site of PTP1B. The images were obtained using the UCSF
# Figure S14. Determination of the IC50 values of avarone for PTP1B (A), and TC-PTP (B).
# Human PTP1B = target: T3, Human PTP1B (Homo sapiens, UniProt P18031); experiment: PTP1B inhibition assay with pNPP as substrate (IC50); format: biochemical; design: polyHis (N); made in house; settings: 2.5 mM pNPP, 37 °C; IC50 ± SD
# T3 sequence (P18031 1-302): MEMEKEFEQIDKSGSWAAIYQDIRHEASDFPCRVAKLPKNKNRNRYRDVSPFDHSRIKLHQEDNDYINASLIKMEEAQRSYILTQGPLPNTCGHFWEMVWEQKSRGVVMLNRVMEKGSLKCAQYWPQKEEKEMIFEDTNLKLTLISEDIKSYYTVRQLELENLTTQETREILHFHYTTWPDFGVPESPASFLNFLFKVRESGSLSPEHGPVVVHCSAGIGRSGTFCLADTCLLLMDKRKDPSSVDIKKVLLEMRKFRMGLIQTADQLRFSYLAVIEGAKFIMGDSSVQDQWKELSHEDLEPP
# Procedure: as §1, §2
# [1] = test system: human leukemia monocytic cells (THP-1); design: method as in PMID 32075136; settings: ref [19]; cited from earlier work
structure (smiles),measurement,setting,value
"CC1=CCC[C@H]2[C@](C)(CC3=CC(=O)C=CC3=O)[C@@H](C)CC[C@]12C [avarone (2), avarone]",IC50,human recombinant AKR1B1,0.078 ± 0.017 µM
same,IC50,TC-PTP,39.2 µM
same,affinity for TC-PTP lower than that for PTP1B,TC-PTP; ratio of IC50 values TC-PTP / PTP1B,5.8 fold
same,IC50,Human PTP1B,6.7 ± 0.6 µM
same,cytotoxicity THP-1,[1],not cytotoxic
